Data published in patent US6962929B2, “Pentafluorobenzenesulfonamides and analogs” (Tularik Inc., priority 1996, dated 2005).

tested on: HeLa cells; experiment: Inhibition of in vitro growth of HeLa cells (Alamar Blue uptake); assay type: cell-based, human; conditions: Homo sapiens; concentration required to inhibit by 50% the uptake of Alamar Blue by HeLa cell cultures
Description: Compounds were evaluated for their ability to inhibit in vitro the growth of HeLa cells, an immortal cell line derived from a human cervical carcinoma commonly used to evaluate the cytotoxicity of potential therapeutic agents. The following data reflect the cytotoxicity of selected examples of the present invention. The values given represent the concentration of test compound required to inhibit by 50% the uptake of Alamar Blue (Biosource International, Camarillo, Calif.) by HeLa cell cultures, which correlates directly with the overall levels of cellular metabolism in the culture, and is generally accepted as an appropriate marker of cell growth. The test was conducted according to the method of S. A. Ahmed et al. (1994) J. Immunol. Methods 170: 211-224.

First: CN(C)c1ccc(NS(=O)(=O)c2c(F)c(F)c(F)c(F)c2F)cc1 [Example 1, 4-(N,N-Dimethylamino)-1-pentafluorophenylsulfonamidobenzene]
Second: CCN(CC)c1ccc(NS(=O)(=O)c2c(F)c(F)c(F)c(F)c2F)cc1 [Example 12, 4-(N,N-Diethylamino)-1-pentafluorophenylsulfonamidobenzene]
The IC50 of the first is lower: under 50 nM for the first, 150 nM for the second. The first is the more potent here.

Compared with `CN(C)c1cccc(NS(=O)(=O)c2c(F)c(F)c(F)c(F)c2F)c1` [Example 2, 3-(N,N-Dimethylamino)-1-pentafluorophenylsulfonamidobenzene], `O=S(=O)(Nc1cccc(O)c1)c1c(F)c(F)c(F)c(F)c1F` [Example 9, 3-Hydroxy-1-pentafluorophenylsulfonamidobenzene] is 6.7-fold higher in IC50: 150 nM for the first, 1000 nM for the second. The first is the more potent here.

First: O=S(=O)(Nc1ccc2c(c1)OCCO2)c1c(F)c(F)c(F)c(F)c1F [Example 3, 1,2-Ethylenedioxy-4-pentafluorophenylsulfonamidobenzene]
Second: O=S(=O)(Nc1ccc2c(c1)OCO2)c1c(F)c(F)c(F)c(F)c1F [Example 4, 1,2-Methylenedioxy-4-pentafluorophenylsulfonamidobenzene]
The IC50 of the first is 6.7-fold lower: 1500 nM for the first, 10000 nM for the second.

`COc1ccc(NS(=O)(=O)c2c(F)c(F)c(F)c(F)c2F)cc1O` [Example 6, 2-Hydroxy-1-methoxy-4-pentafluorophenylsulfonamidobenzene] and `COc1ccc(NS(=O)(=O)c2c(F)c(F)c(F)c(F)c2F)cc1F` [Example 7, 2-Fluoro-1-methoxy-4-pentafluorosulfonamidobenzene] cannot be ordered by IC50: under 50 nM for the first, under 50 nM for the second.

First: COc1ccc(NS(=O)(=O)c2c(F)c(F)c(F)c(F)c2F)cc1 [Example 8, 4-Methoxy-1-pentafluorophenylsulfonamidobenzene]
Second: COc1ccc(NS(=O)(=O)c2c(F)c(F)c(F)c(F)c2F)cc1Br [Example 31, 2-Bromo-1-methoxy4-pentafluorophenylsulfonamidobenzene]
The IC50 of the first is lower: under 50 nM for the first, 500 nM for the second.

Compared with `O=S(=O)(Nc1ccc2[nH]ncc2c1)c1c(F)c(F)c(F)c(F)c1F` [Example 15, 5-Pentafluorophenylsulfonamidoindazole], `O=S(=O)(Nc1ccc(N2CCOCC2)cc1)c1c(F)c(F)c(F)c(F)c1F` [Example 25, 4-(1-Morpholino)-1-pentafluorophenylsulfonamidobenzene] is 10-fold higher in IC50: 1000 nM for the first, 10000 nM for the second.

Going from `CN(C)c1ccc(N(C)S(=O)(=O)c2c(F)c(F)c(F)c(F)c2F)cc1` [Example 17, 4-(N,N-Dimethylamino)-1-(N-methylpentafluorophenylsulfonanido)benzene] to `COc1ccc(N(C)S(=O)(=O)c2c(F)c(F)c(F)c(F)c2F)cc1F` [Example 30, 2-Fluoro-1-methoxy-4-(N-methylpentafluorophenylsulfonamido)benzene], the IC50 falls from 10000 nM to 1500 nM (6.7-fold).

same assay, conditions: concentration required to inhibit by 50% the uptake of Alamar Blue by HeLa cell cultures

For `COc1ccc(NS(=O)(=O)c2c(F)c(F)c(F)c(F)c2F)cc1Cl` [Example 32, 2-Chloro-1-methoxy-4-pentafluorophenylsulfonamidobenzene], the IC50 was 100 nM.

tested on: tubulin; experiment: Irreversible labeling of cellular protein by tritiated compounds in MCF7 cells; assay type: binding; conditions: tritiated form; human breast carcinoma MCF7 cells
Excerpt: Preferred compounds display specific toxicity to various types of cells. Certain compounds and compositions of the present invention exert their cytotoxic effects by interacting with cellular tubulin. For certain preferred compounds and compositions of the present invention, that interaction is covalent and irreversible. […] This protein is a key component of microtubules, which constitute the cytoskeleton and also play critical roles in many other aspects of the cell's physiology, including cell division. The labeling of tubulin by the subject preferred compounds is also shown to be dose-dependent. The site of covalent binding on tubulin is identified as Cysteine-239 on the β-tubulin chain. The same Cys-239 residue is selectively covalently modified when present in a wide variety of Cys-239 containing β-tubulin petides (e.g. Ser-234 to Met-267) provided in vitro or in vivo. One embodiment of these preferred compounds provides the binding mechanism shown in Scheme IV, namely, displacement of the para-fluorine atom by the thiol group of Cys-239.

For `[3H]c1cc(OC)c(F)cc1NS(=O)(=O)c1c(F)c(F)c(F)c(F)c1F` [Example 72, 4-[3H]-1-Fluoro-2-methoxy-5-pentafluorosulfonamidobenzene], the “labeling of cellular protein” value was “irreversible labeling of only one detectable cellular protein, which was found to be tubulin”.

tested on: not given; experiment: not given; conditions: not given

First: COc1ccc(NS(=O)(=O)c2c(F)c(F)c(F)c(F)c2F)cc1 [Example 8, 4-Methoxy-1-pentafluorophenylsulfonamidobenzene]
Second: COc1ccc(NS(=O)(=O)c2c(F)c(F)c(F)c(F)c2F)cc1N [Example 59, 3-Amino-4-methoxy-1-pentafluorophenylsulfonamidobenzene]
The melting point of the first is lower: 102 to 103 °C for the first, 142 to 143 °C for the second.

First: O=S(=O)(Nc1ccc(Cl)nc1)c1c(F)c(F)c(F)c(F)c1F [Example 36, 2-Chloro-5-pentafluorophenylsulfonamidopyridine]
Second: COc1ccc(NS(=O)(=O)c2c(F)c(F)c(F)c(F)c2F)cc1[N+](=O)[O-] [Example 58, 4-Methoxy-3-nitro-1-pentafluorophenylsulfonamidobenzene]
The melting point of the first is higher: 144 to 145 °C for the first, 95 to 97 °C for the second.

First: COc1ccc(N(CCCCCO)S(=O)(=O)c2c(F)c(F)c(F)c(F)c2F)cc1O [Example 37, 2-Hydroxy-1-methoxy-4-(N-(5-hydroxypentyl)-pentafluorophenylsulfonamido)benzene]
Second: COc1ccc(N(CCCCCO)S(=O)(=O)c2c(F)c(F)c(F)c(F)c2F)cc1 [Example 57, 4-Methoxy-1-(N-(5-hydroxypentyl)pentafluorophenylsulfonamido)benzene]
The melting point of the first is higher: 118 °C for the first, 96 to 97 °C for the second.

First: COc1cc(Br)c(NS(=O)(=O)c2c(F)c(F)c(F)c(F)c2F)cc1F [Example 41, 1-Bromo-4-fluoro-5-methoxy-2-pentafluorophenylsulfonamidobenzene]
Second: COc1ccc(NS(=O)(=O)c2c(F)c(F)c(F)c(F)c2F)cc1C(F)(F)F [Example 49, 4-Methoxy-1-pentafluorophenylsulfonamido-3-trifluoromethylbenzene]
The melting point of the first is lower: 109 °C for the first, 121 to 123 °C for the second.

First: C=CCN(c1ccc(OC)cc1)S(=O)(=O)c1c(F)c(F)c(F)c(F)c1F [Example 50, 4-Methoxy-1-(N-(2-propenyl)pentafluorophenylsulfonamido)benzene]
Second: C=CCCN(c1ccc(OC)cc1)S(=O)(=O)c1c(F)c(F)c(F)c(F)c1F [Example 51, 1-(N-(3-Butenyl)pentafluorophenylsulfonamido)-4-methoxybenzene]
The melting point of the first is lower: 59 to 60 °C for the first, 64 to 66 °C for the second.

Compared with `COc1ccc(N(CC(O)CO)S(=O)(=O)c2c(F)c(F)c(F)c(F)c2F)cc1` (stereo not drawn) [Example 53, 1-(N-(2,3-Dihydroxypropyl)pentafluorophenylsulfonamido)-4-methoxybenzene], `COc1ccc(N(CCC(O)CO)S(=O)(=O)c2c(F)c(F)c(F)c(F)c2F)cc1` (stereo not drawn) [Example 54, 1-(N-(3,4-Dihydroxybutyl)pentafluorophenylsulfonamido)-4-methoxybenzene] is lower in melting point: 130 to 131 °C for the first, 126 to 128 °C for the second.

First: COc1ccc(N(CCCC(O)CO)S(=O)(=O)c2c(F)c(F)c(F)c(F)c2F)cc1 (stereo not drawn) [Example 55, 1-(N-(4,5-Dihydroxypentyl)pentafluorophenylsulfonamido)-4-methoxybenzene]
Second: COc1ccc(N(CCCCO)S(=O)(=O)c2c(F)c(F)c(F)c(F)c2F)cc1 [Example 56, 1-(N-(4-hydroxybutyl)pentafluorophenylsulfonamido)-4-methoxybenzene]
The melting point of the first is higher: 116 to 118 °C for the first, 88 to 90 °C for the second.
